In PubChem BioAssay AID977605 (Broad Institute, 2014) one finds AC40 and activation data, which are given here for 63 compounds.

Calls of active or inactive are those of the source.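 Rule for the calls: active = fitted curve reaches 40% activation below the top valid tested dose, in every test run; inconclusive = test runs disagree on the call; inactive = the rest, including effects opposite to the expected direction.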

One assay concerns HUVEC E-selectin immunostaining, imaging, 16 h. The assay is described as follows: endothelial E-selectin upregulation by compounds – imaging, HUVEC, cherry-picked samples, dose response (AID 977605).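 Note: signal is the share of imaged cells scored positive for E-selectin.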
Settings: not given
`CC(C)(C)[S@](=O)N1Cc2cc(C(=O)N[C@H]3CCN(Cc4ccccc4)C3)nc(-c3cccc(-c4ccncc4)c3)c2[C@@H]1CCO`: the AC40 is 13.2 µM. Take `COc1ccc(Nc2ccccc2N)cc1`: the AC40 is 5.67 µM. As to `Cc1ccc(S(=O)(=O)NCc2ccc3c(c2)cc(C)n3C)cc1`, the AC40 is 13.6 µM. Regarding `O=C(C[C@@H]1CC[C@H]2[C@@H](COC[C@H](O)CN2C(=O)c2ccc(F)cc2)O1)Nc1ccc(-c2ccccc2)cc1`, the AC40 is 8 µM. Regarding `COc1ccc(S(=O)(=O)N(C)C[C@@H]2OCCCC[C@H](C)Oc3ccc(NC(=O)Nc4cccc5ccccc45)cc3C(=O)N([C@H](C)CO)C[C@H]2C)cc1`, the AC40 was 17.7 µM. For the compound `Cc1cc2cc(CNC(=O)Nc3ccc(Cl)c(Cl)c3)ccc2n1C`, the AC40 is 10.1 µM. For `COc1cccc(CNC(=O)c2cc3c(c(-c4cccc(-c5ccc(C#N)cc5)c4)n2)[C@H](CCO)N([S@@](=O)C(C)(C)C)C3)c1`, the AC40 was 14.7 µM.

System in the next assay: not listed separately
Described as above. The following applies: HUVEC E-selectin immunostaining, at 19.5 µM (top of the series).
`Cc1cccc(CN2CCCC(C(=O)c3ccc4c(c3)OCO4)C2)n1` (stereo not drawn): the activation was 4.78% (inactive).

Staying with this assay, now noted: HUVEC E-selectin immunostaining, at 19.5 µM (top of the series), percent of TNF-alpha response over vehicle.
For `Cc1ccc(NCC(=O)N2CCN(S(=O)(=O)c3ccccc3)CC2)cc1F`, the activation was 0.075% (inactive).

Take `C[C@@H]1CN([C@@H](C)CO)C(=O)Cc2cc(NC(=O)C3CC3)ccc2O[C@@H]1CN(C)Cc1ccc2c(c1)OCO2`: the activation is -0.129% (inactive). In the case of `CC(C)OC(=O)c1cccnc1N1CCN(c2cccc(Cl)c2)CC1`, the activation is 0.039% (inactive).

With `CC(=O)Nc1ccc(S(=O)(=O)NNc2cccc(C)c2)cc1`, the activation is 0.281% (inactive). On the same count and under the same terms, with `CCC(=O)N(C)C[C@H]1Oc2ncc(Br)cc2C(=O)N([C@@H](C)CO)C[C@H]1C` the figure was -0.195% (inactive); with `C[C@H](CO)N1C[C@H](C)[C@H](CN(C)S(=O)(=O)c2ccc(Cl)cc2)Oc2ccc(NC(=O)NC3CCCCC3)cc2C1=O`, -0.048% (inactive); with `C[C@H]1CN([C@@H](C)CO)C(=O)c2cc(N(C)C)ccc2O[C@H]1CN(C)S(=O)(=O)c1cn(C)cn1`, 0.81% (inactive). The same measure, in the same setting: with `CC(C)NC(=O)Nc1ccc2c(c1)CC(=O)N([C@H](C)CO)C[C@H](C)[C@@H](CN(C)Cc1ccc(Oc3ccccc3)cc1)O2` the figure was -0.055% (inactive); with `COc1ccc(NC(=O)Nc2cccc3c2O[C@@H](CN(C)C(=O)NC2CCCCC2)[C@H](C)CN([C@H](C)CO)C3=O)cc1`, 0.507% (inactive); with `C[C@@H]1CN([C@@H](C)CO)C(=O)Cc2cc(NS(C)(=O)=O)ccc2O[C@H]1CN(C)Cc1ccncc1`, -0.007% (inactive).

`C[C@H]1CN([C@@H](C)CO)C(=O)Cc2cc(NC(=O)C3CC3)ccc2O[C@@H]1CN(C)S(=O)(=O)c1cccs1`: the activation was -0.038% (inactive). With `C[C@H](CO)N1C[C@H](C)[C@@H](CN(C)S(=O)(=O)c2cn(C)cn2)Oc2ccc(NC(=O)Nc3ccc(F)cc3)cc2CC1=O`, the activation is 0.1% (inactive). Still for that read-out and setting: as for `C[C@@H]1CN([C@H](C)CO)C(=O)c2cccc(NC(=O)Nc3ccc4c(c3)OCO4)c2O[C@@H]1CN(C)C(=O)Nc1ccc(C(F)(F)F)cc1`, the figure is 0.256% (inactive); as for `COc1ccccc1CC(Cc1nc2ccccc2[nH]1)c1nc2ccccc2[nH]1` (stereo not drawn), 0.165% (inactive); as for `C[C@H](CO)N1C[C@H](C)[C@@H](CN(C)Cc2ccc(Oc3ccccc3)cc2)Oc2ccc(NS(C)(=O)=O)cc2CC1=O`, 0.311% (inactive). `C[C@@H]1CN([C@H](C)CO)C(=O)Cc2cc(NC(=O)Cc3ccccc3)ccc2O[C@H]1CN(C)S(C)(=O)=O`: the activation was -0.135% (inactive). Still for that read-out and setting: as for `COc1ccc(NC(=O)Nc2ccc3c(c2)C(=O)N([C@H](C)CO)C[C@H](C)[C@@H](CN(C)Cc2ccncc2)O3)cc1`, the figure is 4.31% (inactive).

On to `C[C@H]1CN([C@@H](C)CO)C(=O)Cc2cc(NS(=O)(=O)c3ccc(F)cc3)ccc2O[C@H]1CN(C)S(=O)(=O)c1ccc(Cl)cc1`, for which the activation is -0.018% (inactive).

On to `C[C@H](CO)N1C[C@H](C)[C@H](CN(C)Cc2ccc(Cl)c(Cl)c2)Oc2ccc(NS(=O)(=O)c3cccs3)cc2C1=O`, for which the activation was 0.328% (inactive).

Turning to `O=C(NC(=S)N1CCN(c2ccc([N+](=O)[O-])cc2)CC1)c1ccccc1`, the activation is -0.117% (inactive). For the compound `CCOC(=O)[C@]12CCCC=C1N(Cc1ccccc1)C(=O)[C@H](CC(=O)NCc1cccc3ccccc13)C2`, the activation was 0.13% (inactive).

In the case of `O=S(=O)(c1ccc(F)cc1)N1CCCN(c2nccc(C(F)(F)F)n2)CC1`, the activation is -0.174% (inactive).

For `COc1ccc(S(=O)(=O)Nc2ccc3c(c2)C(=O)N([C@@H](C)CO)C[C@H](C)[C@@H](CN(C)C(=O)Nc2cccc4ccccc24)O3)cc1`, the activation was -0.208% (inactive). For `Cc1ccc(S(=O)(=O)Nc2ccc3c(c2)C(=O)N([C@H](C)CO)C[C@@H](C)[C@H](CN(C)Cc2ccc(-c4ccccc4)cc2)O3)cc1`, the activation is -0.157% (inactive).

As to `Cc1ccc(CCNC(=O)C2CCC(CNc3c(N4CCC(C)CC4)c(=O)c3=O)CC2)cc1` (stereo not drawn), the activation was -0.022% (inactive). Turning to `C[C@H](CO)N1C[C@H](C)[C@@H](CN(C)Cc2ccc(Oc3ccccc3)cc2)Oc2ccc(NC(=O)Nc3ccc(C(F)(F)F)cc3)cc2C1=O`, the activation was 0.27% (inactive). The same measure, in the same setting: with `C[C@@H]1CN([C@@H](C)CO)C(=O)Cc2cc(NS(C)(=O)=O)ccc2O[C@@H]1CN(C)S(=O)(=O)c1cn(C)cn1` the figure was -0.013% (inactive); with `C[C@H](CO)N1C[C@H](C)[C@@H](CN(C)S(C)(=O)=O)Oc2ccc(NC(=O)CCCCCC(=O)Nc3ccccc3N)cc2CC1=O`, 0.149% (inactive). On the same count and under the same terms, with `COc1ccc(N2CCN(C(=O)c3ccccc3NC(=O)C3=C(C)OCCS3)CC2)cc1` the figure was -0.181% (inactive); with `C[C@H]1CN([C@@H](C)CO)C(=O)c2cccc(NC(=O)Nc3cccc4ccccc34)c2O[C@H]1CN(C)Cc1ccc(-c2ccccc2)cc1`, 0.067% (inactive); with `C[C@@H]1CN([C@@H](C)CO)C(=O)c2cc(NC(=O)NC3CCCCC3)ccc2O[C@@H]1CN(C)Cc1ccc2c(c1)OCO2`, -0.021% (inactive). `COc1ccc(S(=O)(=O)Nc2ccc3c(c2)C(=O)N([C@H](C)CO)C[C@@H](C)[C@@H](CN(C)Cc2ccc(Cl)c(Cl)c2)O3)cc1`: the activation is -0.147% (inactive).

As for `COc1ccc(CN(C)C[C@H]2Oc3ccc(N(C)C)cc3CC(=O)N([C@H](C)CO)C[C@H]2C)cc1`, the activation is 0.315% (inactive). Take `C[C@@H]1CN([C@H](C)CO)C(=O)Cc2cc(NC(=O)Nc3ccc4c(c3)OCO4)ccc2O[C@H]1CN(C)Cc1ccc(Cl)c(Cl)c1`: the activation was 0.291% (inactive). Turning to `CCOc1ccc(NC(=O)CNC(=O)c2ccc(OC)cc2)cc1`, the activation was 0.033% (inactive). Take `Cc1ccc(S(=O)(=O)N(C)C[C@@H]2Oc3c(NS(=O)(=O)c4ccc(Cl)cc4)cccc3C(=O)N([C@@H](C)CO)C[C@H]2C)cc1`: the activation was -0.172% (inactive). As for `CCOC(=O)N1CCN=C1SCc1ccc(Cl)c(Cl)c1`, the activation is 5.27% (inactive). With `C[C@@H]1CN([C@H](C)CO)C(=O)Cc2cc(NS(=O)(=O)c3ccc(F)cc3)ccc2O[C@H]1CN(C)S(=O)(=O)c1ccc(Cl)cc1`, the activation is 5.23% (inactive). Regarding `COc1ccc(OCC(O)CNC(=O)c2ccccc2)cc1` (stereo not drawn), the activation is 4.38% (inactive). As for `CCCC#Cc1ccc2c(c1)O[C@@H](CN(C)C(=O)c1ccccc1)[C@@H](C)CN([C@H](C)CO)S2(=O)=O`, the activation is -0.25% (inactive). `C[C@H](CO)N1C[C@H](C)[C@H](CN(C)Cc2ccc(Oc3ccccc3)cc2)Oc2c(NC(=O)C3CCOCC3)cccc2C1=O`: the activation is 6.04% (inactive). On the same count and under the same terms, with `CN(C)C1(CNC(=O)C2CCN(S(=O)(=O)c3cc(Cl)ccc3Cl)CC2)CCCCC1` the figure was -0.207% (inactive). As to `CC(C)NC(=O)N(C)C[C@@H]1Oc2ccc(NC(=O)CCCN(C)C)cc2C(=O)N([C@@H](C)CO)C[C@H]1C`, the activation is -0.112% (inactive). As to `CCCN1CCN(C(=O)c2ccc(CS(=O)c3ccc(Cl)cc3)o2)CC1` (stereo not drawn), the activation was 0.214% (inactive). On to `C[C@H](CO)N1C[C@H](C)[C@@H](CN(C)Cc2ccc(-c3ccccc3)cc2)Oc2c(NC(=O)Nc3cccc4ccccc34)cccc2C1=O`, for which the activation is 1.82% (inactive). `Cc1ccc(S(=O)(=O)N(C)C[C@H]2Oc3ccc(NC(=O)CCCN(C)C)cc3C(=O)N([C@H](C)CO)C[C@H]2C)cc1`: the activation was -0.247% (inactive). On the same count and under the same terms, with `C[C@H](CO)N1C[C@H](C)[C@@H](CN(C)C(=O)NC2CCCCC2)Oc2ccc(NS(=O)(=O)c3ccccc3)cc2C1=O` the figure was -0.099% (inactive).

Take `Cc1noc(C)c1S(=O)(=O)Nc1ccc2c(c1)C(=O)N([C@H](C)CO)C[C@@H](C)[C@@H](CN(C)Cc1ccc3c(c1)OCO3)O2`: the activation was -0.086% (inactive). Regarding `CCn1c(SCC(=O)N(C)Cc2ccc(OC)c(F)c2)nc2cc(S(N)(=O)=O)ccc21`, the activation was -0.113% (inactive). In the case of `O=S1(=O)CC(N2CCN(Cc3ccccc3F)CC2)CN1Cc1cn(Cc2ccccc2)nn1` (stereo not drawn), the activation is 0.129% (inactive). `Cc1noc(C)c1S(=O)(=O)N(C)C[C@@H]1Oc2ccc(NC(=O)Nc3ccc(F)cc3)cc2CC(=O)N([C@@H](C)CO)C[C@@H]1C`: the activation was -0.013% (inactive). Regarding `Cc1ccc(SCc2cc(=O)n(C)[nH]2)cc1`, the activation is 0.221% (inactive).

The assay is the same for the next values; noted with them: HUVEC E-selectin immunostaining, at 21 µM (top of the series), percent of TNF-alpha response over vehicle.
For `C[C@H](CO)N1C[C@H](C)[C@@H](CN(C)C(=O)NC2CCCCC2)Oc2ccc(NC(=O)Nc3ccc(C(F)(F)F)cc3)cc2C1=O`, the activation is -0.177% (inactive). In the case of `C[C@H](CO)N1C[C@H](C)[C@H](CN(C)S(=O)(=O)c2ccc(Cl)cc2)Oc2ccc(NS(=O)(=O)c3ccc(F)cc3)cc2CC1=O`, the activation was -0.115% (inactive).

For the compound `C[C@H](CO)N1C[C@H](C)[C@H](CN(C)C(=O)Nc2ccc3c(c2)OCO3)Oc2c(NS(=O)(=O)c3ccc(Cl)cc3)cccc2C1=O`, the activation was -0.135% (inactive).
